Results as given in US9833497B2, “Human originated EGF domain proteins and use of the same” (CHENGDU SOURCEBIO LIMITED-LIABILITY COMPANY, priority 2013, dated 2017).

Legend:
Assay type in all cases: cell-based
E. coli DH5α = test: Antibacterial activity: MIC and growth curve against E. coli DH5α in 96-well plate; conditions: minimal inhibitory concentration against E. coli DH5α; 96-well plate, 5×10^5 CFU/mL, 37° C., judged after 8 h
Summary of the method: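 Log-phase DH5α (OD600 about 0.5, 37° C, 185 rpm in LB) was pelleted, resuspended in fresh LB and seeded at 5×10^5 CFU/mL with recombinant protein at 50, 25 and 12.5 μg/mL (two-fold series), in triplicate. Plates were shaken at 175 rpm, 37° C, and OD600 was read every 30 min. MIC was the lowest concentration with no growth.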

E. coli BL21 = test: MIC against Gram-negative bacteria: E. coli BL21
Summary of the method: (§1)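 Purified recombinant human EGF domain proteins are tested by broth dilution in LB against a 5×10^5 CFU/mL inoculum, with two-fold serial dilutions run in triplicate. Plates are incubated at 37° C with shaking, and the MIC is read as the lowest protein concentration without growth.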

Pseudomonas aeruginosa = test: MIC against Gram-negative bacteria: Pseudomonas aeruginosa; conditions: for MIC against P. aeruginosa: Pseudomonas aeruginosa
Summary of the method: as §1

Klebsiella pneumonia = test: MIC against Gram-negative bacteria: Klebsiella pneumonia; conditions: for MIC against K. pneumonia: Klebsiella pneumonia
Summary of the method: as §1

Enterobacter cloacae = test: MIC against Gram-negative bacteria: Enterobacter cloacae; conditions: for MIC against E. cloacae: Enterobacter cloacae
Summary of the method: as §1

Aeromonas hydrophila = test: MIC against Gram-negative bacteria: Aeromonas hydrophila; conditions: for MIC against A. hydrophila: Aeromonas hydrophila
Summary of the method: as §1

Citrobacter diversus = test: MIC against Gram-negative bacteria: Citrobacter diversus; conditions: for MIC against C. diversus: Citrobacter diversus
Summary of the method: as §1

Moraxella catarrhalis = test: MIC against Gram-negative bacteria: Moraxella catarrhalis; conditions: for MIC against M. catarrhalis: Moraxella catarrhalis
Summary of the method: as §1

Proteus mirabilis = test: MIC against Gram-negative bacteria: Proteus mirabilis; conditions: for MIC against P. mirabilis: Proteus mirabilis
Summary of the method: as §1

Proteus vulgaris = test: MIC against Gram-negative bacteria: Proteus vulgaris; conditions: for MIC against P. vulgaris: Proteus vulgaris
Summary of the method: as §1

Serratia marcescens = test: MIC against Gram-negative bacteria: Serratia marcescens; conditions: for MIC against S. marcescens: Serratia marcescens
Summary of the method: as §1

[1] = E. coli BL21, 10 h cultivation at 37° C., 5×10^5 CFU/mL
[2] = P. aeruginosa, 10 h cultivation at 37° C., 5×10^5 CFU/mL
[3] = K. pneumonia, 10 h cultivation at 37° C., 5×10^5 CFU/mL
[4] = E. cloacae, 10 h cultivation at 37° C., 5×10^5 CFU/mL
[5] = A. hydrophila, 10 h cultivation at 37° C., 5×10^5 CFU/mL
[6] = C. diversus, 10 h cultivation at 37° C., 5×10^5 CFU/mL
[7] = M. catarrhalis, 10 h cultivation at 37° C., 5×10^5 CFU/mL
[8] = P. mirabilis, 10 h cultivation at 37° C., 5×10^5 CFU/mL
[9] = P. vulgaris, 10 h cultivation at 37° C., 5×10^5 CFU/mL
[10] = S. marcescens, 10 h cultivation at 37° C., 5×10^5 CFU/mL
[11] = E. coli BL21, 96-well plate, 5×10^5 CFU/mL, 37° C., 10 h
[12] = 96-well plate, 5×10^5 CFU/mL, 37° C., 10 h
[13] = E. coli BL21, 5×10^5 CFU/mL, 10 h cultivation at 37° C.
[14] = 5×10^5 CFU/mL, 10 h cultivation at 37° C.
[15] = 10 h cultivation at 37° C., 5×10^5 CFU/mL, two-fold serial dilution

PRT1035 (HRAKCAPSYLFSCFNGGECVHPAFCDCRRFNATGPRCQ; listed as Homo sapiens)
50 µg/mL: MIC (E. coli BL21; E. coli BL21, 10 h cultivation at 37° C.) | MIC (Aeromonas hydrophila; A. hydrophila, 10 h cultivation at 37° C.) | MIC (Serratia marcescens; S. marcescens, 10 h cultivation at 37° C.)
12.5 µg/mL: MIC (E. coli DH5α) | MIC (Pseudomonas aeruginosa; P. aeruginosa, 10 h cultivation at 37° C.) | MIC (Citrobacter diversus; C. diversus, 10 h cultivation at 37° C.) | MIC (Proteus mirabilis; P. mirabilis, 10 h cultivation at 37° C.)
25 µg/mL: MIC (Klebsiella pneumonia; K. pneumonia, 10 h cultivation at 37° C.) | MIC (Enterobacter cloacae; E. cloacae, 10 h cultivation at 37° C.) | MIC (Moraxella catarrhalis; M. catarrhalis, 10 h cultivation at 37° C.) | MIC (Proteus vulgaris; P. vulgaris, 10 h cultivation at 37° C.)

PRT426 (DINECTSLSEPCRPGFSCINTVGSYTCQRNPLICARGYHASDDGTKCV; listed as Homo sapiens)
12.5 µg/mL: MIC (E. coli DH5α) | MIC (Aeromonas hydrophila; [5]) | MIC (Citrobacter diversus; [6]) | MIC (Moraxella catarrhalis; [7]) | MIC (Proteus mirabilis; [8])
50 µg/mL: MIC (E. coli BL21; [1]) | MIC (Pseudomonas aeruginosa; [2]) | MIC (Klebsiella pneumonia; [3]) | MIC (Enterobacter cloacae; [4]) | MIC (Serratia marcescens; [10])
25 µg/mL: MIC (Proteus vulgaris; [9])

PRT1197 (DIDECAAKMHYCHANTVCVNLPGLYRCDCVPGYIRVDDFSCT; listed as Homo sapiens)
25 µg/mL: MIC (E. coli DH5α) | MIC against P. aeruginosa (Pseudomonas aeruginosa; [12]) | MIC against C. diversus (Citrobacter diversus; [12]) | MIC against P. mirabilis (Proteus mirabilis; [12]) | MIC against S. marcescens (Serratia marcescens; [12])
12.5 µg/mL: MIC against E. coli BL21 (E. coli BL21; [11]) | MIC against E. cloacae (Enterobacter cloacae; [12]) | MIC against M. catarrhalis (Moraxella catarrhalis; [12])
50 µg/mL: MIC against K. pneumonia (Klebsiella pneumonia; [12]) | MIC against A. hydrophila (Aeromonas hydrophila; [12]) | MIC against P. vulgaris (Proteus vulgaris; [12])

PRT229 (DINECLTSSVCPEHSDCVNSMGSYSCSCQVGFISRNSTCE; listed as Homo sapiens)
50 µg/mL: MIC (E. coli DH5α)
12.5 µg/mL: MIC (μg/mL) P. aeruginosa (Pseudomonas aeruginosa; [2]) | MIC (μg/mL) K. pneumonia (Klebsiella pneumonia; [3]) | MIC (μg/mL) E. cloacae (Enterobacter cloacae; [4]) | MIC (μg/mL) A. hydrophila (Aeromonas hydrophila; [5]) | MIC (μg/mL) C. diversus (Citrobacter diversus; [6]) | MIC (μg/mL) M. catarrhalis (Moraxella catarrhalis; [7]) | MIC (μg/mL) P. mirabilis (Proteus mirabilis; [8]) | MIC (μg/mL) S. marcescens (Serratia marcescens; [10])
25 µg/mL: MIC (μg/mL) E. coli BL21 (E. coli BL21; [1]) | MIC (μg/mL) P. vulgaris (Proteus vulgaris; [9])

PRT660 (DHDECQDLACENGECVNTEGSFHCFCSPPLTLDLSQQRCM; listed as Homo sapiens)
12.5 µg/mL: MIC (E. coli DH5α) | MIC P. aeruginosa (Pseudomonas aeruginosa; [12]) | MIC K. pneumonia (Klebsiella pneumonia; [12]) | MIC A. hydrophila (Aeromonas hydrophila; [12]) | MIC M. catarrhalis (Moraxella catarrhalis; [12]) | MIC S. marcescens (Serratia marcescens; [12])
25 µg/mL: MIC P. mirabilis (Proteus mirabilis; [12])
50 µg/mL: MIC E. coli BL21 (E. coli BL21; [12]) | MIC E. cloacae (Enterobacter cloacae; [12]) | MIC C. diversus (Citrobacter diversus; [12]) | MIC P. vulgaris (Proteus vulgaris; [12])

PRT1377 (PASACPGGCGPRELCRAGQCVCVEGFRGPDC; listed as Homo sapiens)
25 µg/mL: MIC (E. coli DH5α)
12.5 µg/mL: MIC against P. aeruginosa (Pseudomonas aeruginosa; [14]) | MIC against E. cloacae (Enterobacter cloacae; [14]) | MIC against C. diversus (Citrobacter diversus; [14]) | MIC against P. mirabilis (Proteus mirabilis; [14]) | MIC against S. marcescens (Serratia marcescens; [14])
50 µg/mL: MIC against E. coli BL21 (E. coli BL21; [13]) | MIC against K. pneumonia (Klebsiella pneumonia; [14]) | MIC against A. hydrophila (Aeromonas hydrophila; [14]) | MIC against M. catarrhalis (Moraxella catarrhalis; [14]) | MIC against P. vulgaris (Proteus vulgaris; [14])

PRT1462 (CQCNLHGSVNKFCNPHSGQCECKKEAKGLQCDTCRENFYGLDVTNCKA; listed as Homo sapiens)
25 µg/mL: MIC against E. coli BL21 (E. coli BL21; [13]) | MIC against C. diversus (Citrobacter diversus; [14]) | MIC against P. mirabilis (Proteus mirabilis; [14]) | MIC against S. marcescens (Serratia marcescens; [14])
100 µg/mL: MIC against P. aeruginosa (Pseudomonas aeruginosa; [14])
12.5 µg/mL: MIC (E. coli DH5α) | MIC against K. pneumonia (Klebsiella pneumonia; [14]) | MIC against E. cloacae (Enterobacter cloacae; [14]) | MIC against A. hydrophila (Aeromonas hydrophila; [14]) | MIC against M. catarrhalis (Moraxella catarrhalis; [14]) | MIC against P. vulgaris (Proteus vulgaris; [14])

PRT1359 (SREICPVPCSEEHGTCVDGLCVCHDGFAGDDCN; listed as Homo sapiens)
25 µg/mL: MIC (E. coli DH5α) | MIC against P. aeruginosa (Pseudomonas aeruginosa; [14]) | MIC against E. cloacae (Enterobacter cloacae; [14]) | MIC against C. diversus (Citrobacter diversus; [14]) | MIC against P. mirabilis (Proteus mirabilis; [14]) | MIC against S. marcescens (Serratia marcescens; [14])
12.5 µg/mL: MIC against E. coli BL21 (E. coli BL21; [13]) | MIC against K. pneumonia (Klebsiella pneumonia; [14]) | MIC against A. hydrophila (Aeromonas hydrophila; [14]) | MIC against M. catarrhalis (Moraxella catarrhalis; [14]) | MIC against P. vulgaris (Proteus vulgaris; [14])

PRT1416 (IEICAADCGGHGVCVGGTCRCEDGWMGAACDQ; listed as Homo sapiens)
12.5 µg/mL: MIC against E. coli BL21 (E. coli BL21; [13]) | MIC against C. diversus (Citrobacter diversus; [14]) | MIC against P. mirabilis (Proteus mirabilis; [14]) | MIC against S. marcescens (Serratia marcescens; [14])
25 µg/mL: MIC (E. coli DH5α) | MIC against P. aeruginosa (Pseudomonas aeruginosa; [14]) | MIC against E. cloacae (Enterobacter cloacae; [14]) | MIC against A. hydrophila (Aeromonas hydrophila; [14]) | MIC against M. catarrhalis (Moraxella catarrhalis; [14]) | MIC against P. vulgaris (Proteus vulgaris; [14])
50 µg/mL: MIC against K. pneumonia (Klebsiella pneumonia; [14])

PRT1396 (LGADCAKAACPVLCSGNGQYSKGTCQCYSGWKGAECD; listed as Homo sapiens)
25 µg/mL: MIC against E. cloacae (Enterobacter cloacae; [14]) | MIC against A. hydrophila (Aeromonas hydrophila; [14]) | MIC against M. catarrhalis (Moraxella catarrhalis; [14]) | MIC against P. vulgaris (Proteus vulgaris; [14])
12.5 µg/mL: MIC (E. coli DH5α) | MIC against E. coli BL21 (E. coli BL21; [13]) | MIC against P. aeruginosa (Pseudomonas aeruginosa; [14]) | MIC against K. pneumonia (Klebsiella pneumonia; [14]) | MIC against C. diversus (Citrobacter diversus; [14]) | MIC against P. mirabilis (Proteus mirabilis; [14]) | MIC against S. marcescens (Serratia marcescens; [14])

PRT1244 (CGSTCPTCVQGSCDTVTGDCVCSAGYWGPSCN; listed as Homo sapiens)
50 µg/mL: MIC (E. coli DH5α) | MIC against P. aeruginosa (Pseudomonas aeruginosa; [12]) | MIC against A. hydrophila (Aeromonas hydrophila; [12]) | MIC against P. vulgaris (Proteus vulgaris; [12])
25 µg/mL: MIC against C. diversus (Citrobacter diversus; [12]) | MIC against P. mirabilis (Proteus mirabilis; [12])
12.5 µg/mL: MIC against E. coli BL21 (E. coli BL21; [11]) | MIC against K. pneumonia (Klebsiella pneumonia; [12]) | MIC against E. cloacae (Enterobacter cloacae; [12]) | MIC against M. catarrhalis (Moraxella catarrhalis; [12]) | MIC against S. marcescens (Serratia marcescens; [12])

PRT688 (DVDECQLFRDQVCKSGVCVNTAPGYSCYCSNGYYYHTQRLECI; listed as Homo sapiens)
100 µg/mL: MIC P. vulgaris (Proteus vulgaris; [12])
25 µg/mL: MIC (E. coli DH5α) | MIC P. aeruginosa (Pseudomonas aeruginosa; [12]) | MIC A. hydrophila (Aeromonas hydrophila; [12])
50 µg/mL: MIC K. pneumonia (Klebsiella pneumonia; [12]) | MIC C. diversus (Citrobacter diversus; [12]) | MIC P. mirabilis (Proteus mirabilis; [12]) | MIC S. marcescens (Serratia marcescens; [12])
12.5 µg/mL: MIC E. coli BL21 (E. coli BL21; [12]) | MIC E. cloacae (Enterobacter cloacae; [12]) | MIC M. catarrhalis (Moraxella catarrhalis; [12])

PRT1193 (DANECEGKPCLNAFSCKNLIGGYYCDCIPGWKGINCH; listed as Homo sapiens)
50 µg/mL: MIC P. mirabilis (Proteus mirabilis; [15])
25 µg/mL: MIC K. pneumonia (Klebsiella pneumonia; [15]) | MIC C. diversus (Citrobacter diversus; [15]) | MIC P. vulgaris (Proteus vulgaris; [15])
12.5 µg/mL: MIC (E. coli DH5α) | MIC E. coli BL21 (E. coli BL21; [15]) | MIC P. aeruginosa (Pseudomonas aeruginosa; [15]) | MIC E. cloacae (Enterobacter cloacae; [15]) | MIC A. hydrophila (Aeromonas hydrophila; [15]) | MIC M. catarrhalis (Moraxella catarrhalis; [15]) | MIC S. marcescens (Serratia marcescens; [15])
